ChEMBL document CHEMBL3045072, “Anti-tyrosinase, antioxidant and antimicrobial activities of hydroxycinnamoylamides” (Med Chem Res, 2013)
In brackets after ≈: the same amount, converted by molar mass. Activity calls are given as the source filed them. The calls are words filed in the database; no cut-off is given here.

What was measured:
[1] = tested on: Radical scavenging activity; assay: Antioxidant activity assessed as DPPH radical scavenging activity at 3.6 mM after 20 min; type: functional
[2] = tested on: Radical scavenging activity; assay: Antioxidant activity assessed as DPPH radical scavenging activity at 3.6 mM after 10 min; type: functional
[3] = tested on: Radical scavenging activity; assay: Antioxidant activity assessed as DPPH radical scavenging activity at 1.8 mM after 20 min; type: functional
[4] = tested on: Radical scavenging activity; assay: Antioxidant activity assessed as DPPH radical scavenging activity at 0.9 mM after 20 min; type: functional
[5] = tested on: Radical scavenging activity; assay: Antioxidant activity assessed as DPPH radical scavenging activity at 1.8 mM after 10 min; type: functional
[6] = tested on: Radical scavenging activity; assay: Antioxidant activity assessed as DPPH radical scavenging activity at 0.9 mM after 10 min; type: functional
[7] = target: T1, Tyrosinase (Agaricus bisporus) (UniProt O42713); assay: Inhibition of monophenolase activity of mushroom tyrosinase using L-tyrosine as substrate after 30 min by dopachrome method
T1 sequence (whole entry): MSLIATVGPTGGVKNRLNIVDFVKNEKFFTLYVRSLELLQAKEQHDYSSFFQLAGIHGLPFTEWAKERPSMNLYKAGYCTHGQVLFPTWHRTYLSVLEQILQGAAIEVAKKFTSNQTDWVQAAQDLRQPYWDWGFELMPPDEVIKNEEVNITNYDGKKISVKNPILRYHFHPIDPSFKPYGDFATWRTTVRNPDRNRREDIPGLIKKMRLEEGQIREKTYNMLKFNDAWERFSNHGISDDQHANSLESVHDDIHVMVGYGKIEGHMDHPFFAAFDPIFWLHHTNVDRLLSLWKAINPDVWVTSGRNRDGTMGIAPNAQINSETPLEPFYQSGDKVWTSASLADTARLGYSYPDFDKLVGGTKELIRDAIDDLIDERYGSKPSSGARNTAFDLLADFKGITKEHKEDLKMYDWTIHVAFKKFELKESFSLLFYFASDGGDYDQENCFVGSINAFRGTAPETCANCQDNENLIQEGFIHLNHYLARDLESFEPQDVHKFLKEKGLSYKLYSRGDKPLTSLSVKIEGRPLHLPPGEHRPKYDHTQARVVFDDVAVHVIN

[8] = Inhibition of autoxidation of pure triacylglycerols of sunflower oil at 1 mM by iodometric analysis; type: toxicity; details: 1000 µM
[9] = tested on: Streptococcus pyogenes; assay: Antimicrobial activity against Streptococcus pyogenes 10535 assessed as growth inhibition after 24 hr by serial dilution method; type: functional; details: Streptococcus pyogenes, 10535, 24 h
[10] = tested on: Staphylococcus aureus; assay: Antimicrobial activity against Staphylococcus aureus 209 assessed as growth inhibition after 24 hr by serial dilution method; type: functional; details: Staphylococcus aureus, 209, 24 h

Compound	Activity [1] [%]	Activity [2] [%]	Activity [3] [%]	Activity [4] [%]	Activity [5] [%]	Activity [6] [%]	inhibition [7]	inhibition (INH) [8]	MIC [9] [µg/mL]	MIC [10] [µg/mL]
COc1cc(/C=C/C(=O)N[C@@H](Cc2ccccc2)C(=O)OC(C)(C)C)ccc1O	36.9	30.4	23.6	13.5	19.5	10.9	–	–	–	–
COc1cc(/C=C/C(=O)N[C@@H](Cc2ccccc2)C(=O)OC(C)(C)C)cc(OC)c1O	50.6	46.8	28.2	16.7	25	13.7	–	–	–	–
O=C(/C=C/c1ccc(O)cc1)NCCc1ccc(O)cc1	–	–	–	–	–	–	Active	–	–	–
COC(=O)[C@H](Cc1ccccc1)NC(=O)/C=C/c1ccccc1	2.58	2.18	2.6	2.52	2.39	2	–	–	–	–
COC(=O)[C@H](Cc1ccc(O)cc1)NC(=O)/C=C/c1ccccc1	2.57	2.12	2.3	2.12	2.05	1.74	–	–	–	–
COC(=O)[C@H](Cc1c[nH]c2ccccc12)NC(=O)/C=C/c1ccc(O)cc1	2.88	2.42	2.37	2.13	1.69	1.92	–	–	–	–
O=C(O)/C=C/c1ccc(O)cc1 [COUMARIC ACID]	6.1	4.5	4.7	2.9	3.7	2.1	Active	Not Active	–	–
NC[C@H]1O[C@H](O[C@H]2[C@H](O)[C@@H](O[C@H]3O[C@H](CO)[C@@H](O)[C@H](N)[C@H]3O)[C@H](N)C[C@@H]2N)[C@H](N)C[C@@H]1O [TOBRAMYCIN]	–	–	–	–	–	–	–	–	7.81 (≈ 16.7 µM)	15.6 (≈ 33.4 µM)
O=C(/C=C/c1ccc(O)cc1)NCCc1ccc(O)c(O)c1	–	–	–	–	–	–	Active	–	–	–
O=C(O)/C=C/c1ccc(O)c(O)c1 [CAFFEIC ACID]	91.8	88	64.3	34.1	62.1	33.5	–	Active	125 (≈ 694 µM)	125 (≈ 694 µM)
O=c1c(O)c(-c2ccc(O)c(O)c2)oc2cc(O)cc(O)c12	78	76	58.4	45.2	46.7	40.4	–	–	–	–
COC(=O)[C@H](Cc1ccc(O)cc1)NC(=O)/C=C/c1ccc(O)cc1	1.88	1.44	1.42	0.71	1.04	0.64	Active	–	–	–
O=C(/C=C/c1ccc(O)c(O)c1)NCCc1c[nH]c2ccccc12	–	–	–	–	–	–	–	–	62.5 (≈ 194 µM)	125 (≈ 388 µM)
COC(=O)[C@H](Cc1ccc(O)cc1)NC(=O)/C=C/c1ccc(O)c(O)c1	90.2	89.6	52.5	28.7	51	27.4	–	–	–	–
COc1cc(/C=C/C(=O)O)cc(OC)c1O [SINAPINATE]	69.6	69	31.9	17.2	26.5	16.1	–	Active	125 (≈ 558 µM)	125 (≈ 558 µM)
COC(=O)[C@H](Cc1ccc(O)c(O)c1)NC(=O)/C=C/c1cc(OC)c(O)c(OC)c1	82.8	80.9	45.8	25.4	43.9	23.8	–	Active	–	–
Oc1ccc(O)cc1	–	–	–	–	–	–	Active	–	–	–
COC(=O)[C@H](Cc1c[nH]c2ccccc12)NC(=O)/C=C/c1ccccc1	1.48	1.18	1.41	0.69	1.2	0.79	–	–	–	–

Compound	Activity [1] [%]	Activity [2] [%]	Activity [3] [%]	Activity [4] [%]	Activity [5] [%]	Activity [6] [%]	inhibition [7]	inhibition (INH) [8]	MIC [9] [µg/mL]	MIC [10] [µg/mL]
COC(=O)[C@H](Cc1c[nH]c2ccccc12)NC(=O)/C=C/c1ccc(O)c(O)c1	87.9	80.1	50.4	28.7	44.6	27.1	–	Active	250 (≈ 657 µM)	–
COc1cc(/C=C/C(=O)NCCc2ccc(O)cc2)cc(OC)c1O [TRANS-N-SINAPOYLTYRAMINE]	–	–	–	–	–	–	–	Active	62.5 (≈ 182 µM)	62.5 (≈ 182 µM)
COC(=O)[C@H](Cc1c[nH]c2ccccc12)NC(=O)/C=C/c1cc(OC)c(O)c(OC)c1	49.9	48.1	27.3	14.6	26	13.7	–	–	250 (≈ 589 µM)	–
O=C(O)/C=C/c1ccccc1 [CINNAMIC ACID]	0.35	0.32	0.35	0.32	0.32	0.3	–	Not Active	–	–
COc1cc(/C=C/C(=O)NCCc2ccc(O)cc2)ccc1O [N-TRANS-FERULOYL TYRAMINE]	–	–	–	–	–	–	–	–	125 (≈ 399 µM)	62.5 (≈ 199 µM)
COC(=O)[C@H](Cc1ccc(O)cc1)NC(=O)/C=C/c1cc(OC)c(O)c(OC)c1	45.3	43	25	15.6	23.1	14.2	–	–	250 (≈ 623 µM)	125 (≈ 311 µM)
COc1cc(/C=C/C(=O)O)ccc1O [FERULATE]	44.3	36.7	25.1	13.8	21	12.6	–	Active	125 (≈ 644 µM)	125 (≈ 644 µM)
COC(=O)[C@H](Cc1ccccc1)NC(=O)/C=C/c1ccc(O)c(O)c1 [N-CAFFEOYL-PHENYLALANINE METHYL ESTER]	90.5	90.3	54.6	29.7	53.5	28.8	–	Active	–	–
CC(C)(C)OC(=O)[C@H](Cc1ccccc1)NC(=O)/C=C/c1ccc(O)cc1	2.92	2.46	2.23	2.3	1.89	1.97	–	–	–	–
COC(=O)[C@H](Cc1ccc(O)cc1)NC(=O)/C=C/c1ccc(O)c(OC)c1	29.2	24.8	16.2	8.79	13.7	7.04	–	–	–	15 (≈ 40.4 µM)
COc1cc(/C=C/C(=O)NCCc2c[nH]c3ccccc23)cc(OC)c1O	–	–	–	–	–	–	–	–	62.5 (≈ 171 µM)	250 (≈ 682 µM)
COC(=O)[C@H](Cc1ccc(O)c(O)c1)NC(=O)/C=C/c1ccc(O)cc1	67.1	64.4	34.8	19.1	33.3	18	Active	Active	–	–
Cc1c(C)c2c(c(C)c1O)CCC(C)(CCCC(C)CCCC(C)CCCC(C)C)O2 (racemic)	73.3	62.9	46.8	24.8	40.8	23.2	–	–	–	–
COC(=O)[C@H](Cc1ccc(O)c(O)c1)NC(=O)/C=C/c1ccc(O)c(OC)c1	87	83.8	50.6	28.5	44.8	24.3	–	–	–	125 (≈ 323 µM)
COc1cc(/C=C/C(=O)NCCc2ccc(O)c(O)c2)ccc1O [N-TRANS-FERULOYLDOPAMINE]	–	–	–	–	–	–	–	–	125 (≈ 380 µM)	62.5 (≈ 190 µM)
COC(=O)[C@H](Cc1c[nH]c2ccccc12)NC(=O)/C=C/c1ccc(O)c(OC)c1	30.9	26.4	17.4	9.76	14.5	7.96	–	–	–	–
COC(=O)[C@H](Cc1ccc(O)c(O)c1)NC(=O)/C=C/c1ccccc1 [N-CINNAMOYL-DOPA METHYL ESTER]	88.1	85	48.4	26.6	45.5	24.4	–	Active	–	–
COC(=O)[C@H](Cc1ccc(O)c(O)c1)NC(=O)/C=C/c1ccc(O)c(O)c1 [N-CAFFEOYL-DOPA METHYL ESTER]	88.8	88.7	86	50.5	82.5	44.8	–	Active	–	–
